Experimental data: US8604044B2, “Quinazoline based EGFR inhibitors containing a zinc binding moiety” (Curis, Inc., priority 2006, dated 2013)

Tests used:
HER2 = target: T1, HER2 (Homo sapiens, UniProt P04626); assay: Radioisotope assay for HER2; format: biochemical; conditions: read-out: HER2/ErB2 IC50 grading
T1 construct: human HER2 amino acids 679-1255; host or cells: baculovirus in Sf9 insect cells
Method: Protocol for Radioisotope Assay for HER2
10 nM HER2 and 0.1 mg/ml polyEY were placed in the reaction buffer and 2 mM MnCl2, 1 μM ATP and 1% DMSO final were added. The reaction mixture was incubated for 2 hours at room temperature.
MW=91.6 kDa. […] Enzyme is in 25 mM Tris-HCl, pH 8.0, 100 mM NaCl, 0.05% Tween-20, 50% glycerol, 10 mM reduced glutathione, and 3 mM DTT.

HDAC = HDAC fluorimetric assay (HDAC enzymatic activity, HeLa nuclear extract); format: biochemical; conditions: for IC50: HeLa nuclear extract, read-out: HDAC IC50 grading
Method: HDAC inhibitors were screened using an HDAC fluorimetric assay kit (AK-500, Biomol, Plymouth Meeting, Pa.).
Each assay was setup as follows: Defrosted all kit components and kept on ice until use. […] Prepared dilutions of Trichostatin A (TSA, positive control) and tested compounds in assay buffer (5× of final concentration). Diluted Fluor de Lys™ Substrate in assay buffer to 100 uM (50 fold=2× final). Diluted Fluor de Lys™ developer concentrate 20-fold (e.g. 50 μl plus 950 μl Assay Buffer) in cold assay buffer. Second, diluted the 0.2 mM Trichostatin A 100-fold in the 1× Developer (e.g. 10 μl in 1 ml; final Trichostatin A concentration in the 1× Developer=2 μM; final concentration after addition to HDAC/Substrate reaction=1 μM). Added Assay buffer, diluted trichostatin A or test inhibitor to appropriate wells of the microtiter plate. Added diluted HeLa extract or other HDAC sample to all wells except for negative controls.

human EGFR = target: T2, human EGFR (Homo sapiens, UniProt P00533); assay: HTScan EGF Receptor Kinase Assay; format: biochemical; conditions: for IC50: read-out: EGFR IC50 grading
T2 construct: human EGFR (His672-Ala1210); purchased Cell Signaling Technologies; host or cells: baculovirus expression system
T2 sequence (P00533 672-1210): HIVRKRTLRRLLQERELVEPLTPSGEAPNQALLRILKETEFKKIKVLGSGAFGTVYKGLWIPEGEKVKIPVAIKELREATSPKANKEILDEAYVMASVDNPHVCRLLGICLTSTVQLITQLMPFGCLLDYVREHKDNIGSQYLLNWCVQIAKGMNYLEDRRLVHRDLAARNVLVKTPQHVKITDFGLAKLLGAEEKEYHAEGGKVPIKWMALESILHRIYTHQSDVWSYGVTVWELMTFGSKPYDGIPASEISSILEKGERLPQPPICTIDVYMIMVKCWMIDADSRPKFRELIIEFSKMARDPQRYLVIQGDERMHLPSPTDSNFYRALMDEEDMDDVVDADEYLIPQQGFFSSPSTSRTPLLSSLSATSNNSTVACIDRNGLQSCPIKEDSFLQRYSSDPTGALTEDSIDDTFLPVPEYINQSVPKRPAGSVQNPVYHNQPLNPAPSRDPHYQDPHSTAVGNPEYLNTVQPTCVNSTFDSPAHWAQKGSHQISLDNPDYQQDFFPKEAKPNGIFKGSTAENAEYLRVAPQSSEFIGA
Method: The ability of compounds to inhibit receptor kinase (EGFR) activity was assayed using HTScan™ EGF Receptor Kinase Assay Kits (Cell Signaling Technologies, Danvers, Mass.). […] The protein was purified by one-step affinity chromatography using glutathione-agarose.
Immediately transfer enzyme from −80° C. to ice. Allowed enzyme to thaw on ice. […] Returned immediately to ice. […] Incubated reaction plate at room temperature for 30 minutes. […] Added 100 μl/well primary antibody. Incubated at room temperature for 60 minutes. […] Added 100 μl/well diluted antibody. Incubated at room temperature for 30 minutes. […] Incubated at room temperature for 5 minutes.

T1 sequence (P04626 679-1255): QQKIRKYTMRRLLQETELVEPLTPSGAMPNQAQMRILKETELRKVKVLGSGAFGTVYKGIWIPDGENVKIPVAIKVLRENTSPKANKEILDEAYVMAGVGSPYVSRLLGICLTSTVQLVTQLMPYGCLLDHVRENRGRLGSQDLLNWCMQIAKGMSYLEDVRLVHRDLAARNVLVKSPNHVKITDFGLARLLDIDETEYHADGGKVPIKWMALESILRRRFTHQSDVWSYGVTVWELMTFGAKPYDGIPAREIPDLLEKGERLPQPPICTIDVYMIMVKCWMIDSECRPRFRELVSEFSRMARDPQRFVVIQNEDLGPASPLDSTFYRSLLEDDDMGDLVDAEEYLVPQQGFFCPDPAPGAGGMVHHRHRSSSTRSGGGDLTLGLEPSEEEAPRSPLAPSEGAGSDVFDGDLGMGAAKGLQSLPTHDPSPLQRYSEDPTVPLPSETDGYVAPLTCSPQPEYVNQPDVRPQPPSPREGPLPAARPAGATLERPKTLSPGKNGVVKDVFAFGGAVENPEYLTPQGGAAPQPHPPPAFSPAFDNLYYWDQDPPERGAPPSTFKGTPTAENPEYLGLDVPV

SMILES	IC50 (HER2) [µM]	IC50 (HDAC) [µM]	melting point [°C]	activity in EFGR enzyme assay compared with erlotinib (human EGFR; FIG. 1)	activity in HDAC enzyme assay compared with SAHA (HDAC; FIG. 1)	IC50 (human EGFR) [µM]
C#Cc1cccc(Nc2ncnc3cc(OC)c(OCC(=O)NO)cc23)c1 [Compound 7, 2-(4-(3-ethynylphenylamino)-7-methoxyquinazolin-6-yloxy)-N-hydroxyacetamide]	< 0.1	> 10	–	–	–	–
O=C(CCNCc1ccc(-c2ccc3ncnc(Nc4ccc(OCc5cccc(F)c5)c(Cl)c4)c3c2)o1)NO [Compound 174, 3-((5-(4-(3-Chloro-4-(3-fluorobenzyloxy)phenylamino)quinazolin-6-yl)furan-2-yl)methylamino)-N-hydroxypropanamide]	–	> 10	170	–	–	–
COc1cc2ncnc(Nc3ccc(F)c(Cl)c3)c2cc1OCCCCCCC(=O)NO [Compound 6, 7-(4-(3-Chloro-4-fluorophenylamino)-7-methoxyquinazolin-6-yloxy)-N-hydroxyheptanamide]	< 0.1	< 0.1	–	more active	more active	–
COc1cc2ncnc(Nc3ccc(F)c(Cl)c3)c2cc1OCCCCCCN(O)C(N)=O [Compound 102]	–	–	–	–	–	< 0.1
O=C(CCCCOc1ccc2ncnc(Nc3ccc(F)c(Cl)c3)c2c1)NO [Compound 16, 5-(4-(3-chloro-4-fluorophenylamino)quinazolin-6-yloxy)-N-hydroxypentanamide]	–	0.1 to 1	85.9	–	–	–
COc1cc2ncnc(Nc3ccc(F)c(Cl)c3)c2cc1NC(=O)CCCCCCC(=O)NO [Compound 40, N^1-(4-(3-chloro-4-fluorophenylamino)-7-methoxyquinazolin-6-yl)-N^8-hydroxyoctanediamide]	0.1 to 1	< 0.1	–	–	–	–
COc1cc2ncnc(N[C@H](C)c3ccccc3)c2cc1OCCCCCCC(=O)NO [Compound 79, (R)—N-hydroxy-7-(7-methoxy-4-(1-phenylethylamino)quinazolin-6-yloxy)heptanamide]	0.1 to 1	< 0.1	–	–	–	–
COCCOc1cc2ncnc(Nc3ccc(OCc4cccc(F)c4)c(Cl)c3)c2cc1OCCCCCCC(=O)NO [Compound 200]	< 0.1	< 0.1	–	–	–	< 0.1
O=C(CCCCCCOc1ccc2ncnc(Nc3ccc(F)c(Cl)c3)c2c1)NO [Compound 18, 7-(4-(3-chloro-4-fluorophenylamino)quinazolin-6-yloxy)-N-hydroxyheptanamide]	0.1 to 1	< 0.1	–	–	–	–
COc1cc2ncnc(Nc3ccc(F)c(Cl)c3)c2cc1SCCCCCCC(=O)NO [Compound 155, 7-(4-(3-Chloro-4-fluorophenylamino)-7-methoxyquinazolin-6-ylthio)-N-hydroxyheptanamide]	< 0.1	–	–	–	–	< 0.1
COc1cc2ncnc(Nc3ccc(OCc4cccc(F)c4)c(Cl)c3)c2cc1OCCCCCCC(=O)NO [Compound 199, 7-(4-(3-chloro-4-(3-fluorobenzyloxy)phenylamino)-7-methoxyquinazolin-6-yloxy)-N-hydroxyheptanamide]	< 0.1	< 0.1	–	–	–	< 0.1
C#Cc1cccc(Nc2ncnc3ccc(OCCCCCC(=O)NO)cc23)c1 [Compound 23, 6-(4-(3-ethynylphenylamino)quinazolin-6-yloxy)-N-hydroxyhexanamide]	–	< 0.1	176 to 182	–	–	–
C#Cc1cccc(Nc2ncnc3cc(OC)c(OCCCCCC(=O)NO)cc23)c1 [Compound 11, 6-(4-(3-ethynylphenylamino)-7-methoxyquinazolin-6-yloxy)-N-hydroxyhexanamide]	0.1 to 1	< 0.1	–	–	–	–
C#Cc1cc(Nc2ncnc3cc(OC)c(OCCCCCCC(=O)NO)cc23)ccc1O [Compound 206]	< 0.1	< 0.1	–	–	–	< 0.1
C#Cc1cccc(Nc2ncnc3ccc(OCC(=O)NO)cc23)c1 [Compound 19, 2-(4-(3-ethynylphenylamino)quinazolin-6-yloxy)-N-hydroxyacetamide]	–	> 10	189 to 191	–	–	–
COc1cc2ncnc(NCc3ccccc3)c2cc1OCCCCCCC(=O)NO [Compound 85, 7-(4-(Benzylamino)-7-methoxyquinazolin-6-yloxy)-N-hydroxyheptanamide]	0.1 to 1	< 0.1	–	–	–	–

SMILES	IC50 (HER2) [µM]	IC50 (HDAC) [µM]	melting point [°C]	activity in EFGR enzyme assay compared with erlotinib (human EGFR; FIG. 1)	activity in HDAC enzyme assay compared with SAHA (HDAC; FIG. 1)	IC50 (human EGFR) [µM]
O=C(CCCOc1ccc2ncnc(Nc3ccc(F)c(Cl)c3)c2c1)NO [Compound 15, 4-(4-(3-chloro-4-fluorophenylamino)quinazolin-6-yloxy)-N-Hydroxybutanamide]	–	< 0.1	128 to 132	–	–	–
O=C(CCCCCCOc1ccc2ncnc(Nc3ccc(OCc4cccc(F)c4)c(Cl)c3)c2c1)NO [Compound 198, 7-(4-(3-chloro-4-(3-fluorobenzyloxy)phenylamino)quinazolin-6-yloxy)-N-hydroxyheptanamide]	< 0.1	< 0.1	–	–	–	< 0.1
O=C(CCCCCCNCc1ccc(-c2ccc3ncnc(Nc4ccc(OCc5cccc(F)c5)c(Cl)c4)c3c2)o1)NO [Compound 178, 7-((5-(4-(3-chloro-4-(3-fluorobenzyloxy)phenylamino)quinazolin-6-yl)furan-2-yl)methylamino)-N-hydroxyheptanamide]	–	0.1 to 1	120	–	–	–
C#Cc1cccc(Nc2ncnc3cc(OCCCCCCC(=O)NO)c(OCCOC)cc23)c1 [Compound 168, 7-(4-(3-ethynylphenylamino)-6-(2-methoxyethoxy)quinazolin-7-yloxy)-N-hydroxyheptanamide]	0.1 to 1	< 0.1	–	–	–	< 0.1
C#Cc1cc(Nc2ncnc3cc(OC)c(OCCCCCCC(=O)NO)cc23)ccc1F [Compound 75, 7-(4-(3-ethynyl-4-fluorophenylamino)-7-methoxyquinazolin-6-yloxy)-N-hydroxyheptanamide]	0.1 to 1	< 0.1	–	–	–	–
COc1cc2ncnc(Nc3ccc(F)c(Cl)c3)c2cc1SCCCCC(=O)NO [Compound 151, 5-(4-(3-chloro-4-fluorophenylamino)-7-methoxyquinazolin-6-ylthio)-N-hydroxypentanamide]	< 0.1	–	–	–	–	< 0.1
COCCOc1cc2c(Nc3ccc(F)c(Cl)c3)ncnc2cc1OCCCCCCC(=O)NO [Compound 167, 7-(4-(3-chloro-4-fluorophenylamino)-6-(2-methoxyethoxy)quinazolin-7-yloxy)-N-hydroxyheptanamide]	0.1 to 1	< 0.1	–	–	–	< 0.1
C#Cc1cccc(Nc2ncnc3cc(OC)c(NC(=O)CCCCCCC(=O)NO)cc23)c1 [Compound 44, N^1-(4-(3-ethynylphenylamino)-7-methoxyquinazolin-6-yl)-N^8-hydroxyoctanediamide]	0.1 to 1	< 0.1	–	–	–	–
COCCOc1cc2ncnc(Nc3ccc(F)c(Cl)c3)c2cc1OCCCCCCC(=O)NO [Compound 30, 7-(4-(3-Chloro-4-fluorophenylamino)-7-(2-methoxyethoxy)quinazolin-6-yloxy)-N-hydroxyheptanamide]	0.1 to 1	< 0.1	–	–	–	–
COc1cc2c(Nc3ccc(F)c(Cl)c3)ncnc2cc1OCCCCCCC(=O)NO [Compound 161, 7-(4-(3-chloro-4-fluorophenylamino)-6-methoxyquinazolin-7-yloxy)-N-hydroxyheptanamide]	0.1 to 1	< 0.1	–	–	–	–
O=C(CCCCCCCNCc1ccc(-c2ccc3ncnc(Nc4ccc(OCc5cccc(F)c5)c(Cl)c4)c3c2)o1)NO [Compound 201]	< 0.1	0.1 to 1	–	–	–	< 0.1
C#Cc1cccc(Nc2ncnc3cc(OCCCCCCC(=O)NO)c(OC)cc23)c1 [Compound 162, 7-(4-(3-ethynylphenylamino)-6-methoxyquinazolin-7-yloxy)-N-hydroxyheptanamide]	0.1 to 1	< 0.1	–	–	–	< 0.1
C#Cc1cc(Nc2ncnc3cc(OCCOC)c(OCCCCCCC(=O)NO)cc23)ccc1F [Compound 76]	0.1 to 1	< 0.1	–	–	–	–
COc1cc2ncnc(N[C@H](C)c3ccc(F)cc3)c2cc1OCCCCCCC(=O)NO [Compound 81, (R)-7-(4-(1-(4-fluorophenyl)ethylamino)-7-methoxyquinazolin-6-yloxy)-N-hydroxyheptanamide]	–	0.1 to 1	118.2 to 144.3	–	–	–
C#Cc1cccc(Nc2ncnc3cc(O)c(OCCCCCCC(=O)NO)cc23)c1 [Compound 207]	< 0.1	–	–	–	–	< 0.1
C#Cc1cccc(Nc2ncnc3ccc(OCCCC(=O)NO)cc23)c1 [Compound 21, 4-(4-(3-ethynylphenylamino)quinazolin-6-yloxy)-N-hydroxybutanamide]	–	1 to 10	182 to 186	–	–	–
